According to PubChem BioAssay AID248 (DTP/NCI, 2004):
“And” between values parts separate entries of the source, which are not always exact repeats. Equal entries are not always repeated. Inconclusive results and toxic doses are left out. No stated cut-off is given here; in the data, active means T/C of 150% or more; inactive means T/C below 125%.

Test system: L1210 leukemia ip in BDF1 mice, survival T/C
Test: NCI In Vivo Anticancer Drug Screen. Data for tumor model L1210 Leukemia (intraperitoneal) in B6D2F1 (BDF1) mice
Conditions: endpoint: mean survival time, higher = longer survival
In short: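 Each compound was tested against a transplantable tumor grown in mice. The endpoint was survival, with treated animals benchmarked against vehicle controls as a simple ratio.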

[1] = dose: 75.0 mg/kg/injection, schedule: Q01DX001 (ip), vehicle: saline
[2] = dose: 150.0 mg/kg/injection, schedule: Q01DX001 (ip), vehicle: saline
[3] = dose: 50.0 mg/kg/injection, schedule: Q01DX009 (ip), vehicle: saline
[4] = dose: 100.0 mg/kg/injection, schedule: Q01DX009 (ip), vehicle: saline
[5] = dose: 100.0 mg/kg/injection, schedule: Q04DX003 (ip), vehicle: saline
[6] = dose: 200.0 mg/kg/injection, schedule: Q04DX003 (ip), vehicle: saline
[7] = dose: 400.0 mg/kg/injection, schedule: Q04DX003 (ip), vehicle: saline
[8] = dose: 100.0 mg/kg/injection, schedule: Q01DX009 (ip), vehicle: Klucel (hydroxypropylcellulose) (HPC)
[9] = dose: 100.0 mg/kg/injection, schedule: Q04DX003 (ip), vehicle: Klucel (hydroxypropylcellulose) (HPC)
[10] = dose: 200.0 mg/kg/injection, schedule: Q04DX003 (ip), vehicle: Klucel (hydroxypropylcellulose) (HPC)
[11] = dose: 400.0 mg/kg/injection, schedule: Q04DX003 (ip), vehicle: Klucel (hydroxypropylcellulose) (HPC)
[12] = dose: 200.0 mg/kg/injection, schedule: Q01DX009 (ip), vehicle: Klucel (hydroxypropylcellulose) (HPC)
[13] = dose: 400.0 mg/kg/injection, schedule: Q01DX009 (ip), vehicle: Klucel (hydroxypropylcellulose) (HPC)

Measured: T/C

N#Cc1cc([N+](=O)[O-])c(Cl)c([N+](=O)[O-])c1Cl
inactive: dose: 3.13 mg/kg/injection, schedule: Q01DX009 (ip), vehicle: saline with Tween-80 95 % of control | dose: 6.25 mg/kg/injection, schedule: Q01DX009 (ip), vehicle: saline with Tween-80 108 % of control | dose: 6.25 mg/kg/injection, schedule: Q04DX003 (ip), vehicle: saline with Tween-80 98 % of control | dose: 12.5 mg/kg/injection, schedule: Q01DX009 (ip), vehicle: saline with Tween-80 101 % of control | dose: 12.5 mg/kg/injection, schedule: Q04DX003 (ip), vehicle: saline with Tween-80 95 % of control

CCCCCCCCCc1ccc(OP(Oc2ccccc2)Oc2ccc(CCCCCCCCC)cc2)cc1
inactive: [1] 100 % of control | [2] 109 % of control

CCCCCCCCCCCCCC(=O)N(CCC)CCC
inactive: dose: 100.0 mg/kg/injection, schedule: Q01DX001 (ip), vehicle: carboxymethylcellulose (CMC) 96 % of control | dose: 100.0 mg/kg/injection, schedule: Q01DX009 (ip), vehicle: carboxymethylcellulose (CMC) 94 % of control and 110 % of control | dose: 100.0 mg/kg/injection, schedule: Q04DX003 (ip), vehicle: carboxymethylcellulose (CMC) 95 % of control | dose: 200.0 mg/kg/injection, schedule: Q01DX001 (ip), vehicle: carboxymethylcellulose (CMC) 93 % of control | dose: 200.0 mg/kg/injection, schedule: Q01DX009 (ip), vehicle: carboxymethylcellulose (CMC) 98 % of control and 103 % of control | dose: 200.0 mg/kg/injection, schedule: Q04DX003 (ip), vehicle: carboxymethylcellulose (CMC) 95 % of control | dose: 400.0 mg/kg/injection, schedule: Q01DX001 (ip), vehicle: carboxymethylcellulose (CMC) 91 % of control | dose: 400.0 mg/kg/injection, schedule: Q04DX003 (ip), vehicle: carboxymethylcellulose (CMC) 93 % of control

CC(=O)N1CC(n2cnc3c(N)ncnc32)CC1CO (centres undefined)
inactive: dose: 12.5 mg/kg/injection, schedule: Q04DX002 (ip), vehicle: saline with Tween-80 102 % of control | dose: 25.0 mg/kg/injection, schedule: Q04DX002 (ip), vehicle: saline with Tween-80 98 % of control | dose: 50.0 mg/kg/injection, schedule: Q04DX002 (ip), vehicle: saline with Tween-80 94 % of control

CCOC(=O)c1nc2nc(Cl)c(Cl)nc2[nH]1
inactive: dose: 12.5 mg/kg/injection, schedule: Q04DX003 (ip), vehicle: saline 102 % of control | dose: 25.0 mg/kg/injection, schedule: Q01DX009 (ip), vehicle: saline 107 % of control | dose: 25.0 mg/kg/injection, schedule: Q04DX003 (ip), vehicle: saline 100 % of control | [3] 105 % of control | dose: 50.0 mg/kg/injection, schedule: Q04DX003 (ip), vehicle: saline 105 % of control | [4] 96 % of control | [5] 99 % of control | [6] 98 % of control | [7] 96 % of control

NC(=O)C(O)C(Br)(Br)Br (centres undefined)
inactive: [4] 94 % of control | [5] 97 % of control | dose: 200.0 mg/kg/injection, schedule: Q01DX009 (ip), vehicle: saline 95 % of control | [6] 93 % of control | dose: 400.0 mg/kg/injection, schedule: Q01DX009 (ip), vehicle: saline 90 % of control | [7] 97 % of control

NC(N)=N/N=C\c1ccc(CCC(=O)O)cc1
inactive: dose: 15.0 mg/kg/injection, schedule: Q01DX Z (ip), vehicle: carboxymethylcellulose (CMC) 97 % of control | dose: 30.0 mg/kg/injection, schedule: Q01DX Z (ip), vehicle: carboxymethylcellulose (CMC) 97 % of control | dose: 60.0 mg/kg/injection, schedule: Q01DX Z (ip), vehicle: carboxymethylcellulose (CMC) 101 % of control | dose: 120.0 mg/kg/injection, schedule: Q01DX Z (ip), vehicle: carboxymethylcellulose (CMC) 97 % of control | dose: 120.0 mg/kg/injection, schedule: Q01DX Z (oral), vehicle: carboxymethylcellulose (CMC) 113 % of control | dose: 240.0 mg/kg/injection, schedule: Q01DX Z (oral), vehicle: carboxymethylcellulose (CMC) 112 % of control | dose: 480.0 mg/kg/injection, schedule: Q01DX Z (oral), vehicle: carboxymethylcellulose (CMC) 109 % of control | dose: 960.0 mg/kg/injection, schedule: Q01DX Z (oral), vehicle: carboxymethylcellulose (CMC) 109 % of control

Cc1cc([N+](=O)[O-])cc([N+](=O)[O-])c1Cl
inactive: dose: 50.0 mg/kg/injection, schedule: Q01DX009 (ip), vehicle: Klucel (hydroxypropylcellulose) (HPC) 103 % of control | [8] 100 % of control | [9] 98 % of control | [10] 103 % of control

CC(C)=CC(=O)CC(O)(C(F)(F)F)C(F)(F)Cl (centres undefined)
inactive: [3] 92 % of control | [4] 100 % of control

Nc1cc(N)c(O)c(N)c1
inactive: dose: 0.5 mg/kg/injection, schedule: Q04DX003 (ip), vehicle: saline 103 % of control | dose: 1.0 mg/kg/injection, schedule: Q04DX003 (ip), vehicle: saline 105 % of control | dose: 1.25 mg/kg/injection, schedule: Q01DX009 (ip), vehicle: saline 95 % of control | dose: 2.0 mg/kg/injection, schedule: Q04DX003 (ip), vehicle: saline 111 % of control | dose: 2.5 mg/kg/injection, schedule: Q01DX009 (ip), vehicle: saline 90 % of control | dose: 5.0 mg/kg/injection, schedule: Q01DX009 (ip), vehicle: saline 97 % of control

CCCCOC(=O)c1ccc(OCCOc2ccc(C(C)(C)CC(C)(C)C)cc2)c(NC(=O)CC(=O)c2cccc(N)c2)c1
inactive: dose: 100.0 mg/kg/injection, schedule: Q01DX009 (ip), vehicle: saline sonified 97 % of control | [9] 96 % of control | dose: 200.0 mg/kg/injection, schedule: Q01DX009 (ip), vehicle: saline sonified 91 % of control | [10] 93 % of control | dose: 400.0 mg/kg/injection, schedule: Q01DX009 (ip), vehicle: saline sonified 103 % of control | [11] 88 % of control

C/C=C/CC1(CCC)C(=O)NC(=O)NC1=O
inactive: [1] 100 % of control | [2] 98 % of control | dose: 300.0 mg/kg/injection, schedule: Q01DX001 (ip), vehicle: saline 104 % of control

O=S(=O)(Nc1ccc(N(c2c(Cl)c(Cl)c(NS(=O)(=O)c3ccccc3)c(Cl)c2Cl)S(=O)(=O)c2ccccc2)cc1)c1ccccc1
inactive: dose: 100.0 mg/kg/injection, schedule: Q01DX001 (ip), vehicle: Klucel (hydroxypropylcellulose) (HPC) 93 % of control | dose: 200.0 mg/kg/injection, schedule: Q01DX001 (ip), vehicle: Klucel (hydroxypropylcellulose) (HPC) 96 % of control | dose: 400.0 mg/kg/injection, schedule: Q01DX001 (ip), vehicle: Klucel (hydroxypropylcellulose) (HPC) 95 % of control

O=[N+]([O-])c1cc(S(=O)(=O)N2CCCC2)ccc1N1CCCC1
inactive: [5] 100 % of control | [6] 96 % of control | [7] 105 % of control

Cc1ccc(NC(=O)CCC(=O)O)cc1[N+](=O)[O-]
inactive: [8] 97 % of control | [12] 101 % of control | [13] 98 % of control

CS(=O)(=O)c1ccc(/C=C2/C=Cc3ccccc32)cc1
inactive: [8] 95 % of control | [9] 96 % of control | [12] 103 % of control | [10] 96 % of control | [13] 95 % of control | [11] 98 % of control

CCCCS(=O)CC(O)(c1ccccc1)c1ccccc1 (centres undefined)
inactive: dose: 100.0 mg/kg/injection, schedule: Q03DX002 (ip), vehicle: saline with Tween-80 102 % of control | dose: 200.0 mg/kg/injection, schedule: Q03DX002 (ip), vehicle: saline with Tween-80 105 % of control

Nc1c(Br)cc(I)cc1C(=O)O
inactive: dose: 100.0 mg/kg/injection, schedule: Q04DX002 (ip), vehicle: Klucel (hydroxypropylcellulose) (HPC) 108 % of control | dose: 200.0 mg/kg/injection, schedule: Q04DX002 (ip), vehicle: Klucel (hydroxypropylcellulose) (HPC) 93 % of control | dose: 400.0 mg/kg/injection, schedule: Q04DX002 (ip), vehicle: Klucel (hydroxypropylcellulose) (HPC) 104 % of control

COc1cc(C2=C3C(=O)OC[C@@H]3Cc3cc4c(cc32)OCO4)cc(OC)c1OC
inactive: dose: 100.0 mg/kg/injection, schedule: Q01DX001 (ip), vehicle: saline 94 % of control | [8] 91 % of control | [9] 95 % of control | [5] 105 % of control | dose: 200.0 mg/kg/injection, schedule: Q01DX001 (ip), vehicle: saline 104 % of control | [12] 94 % of control | [10] 97 % of control | [6] 96 % of control | dose: 400.0 mg/kg/injection, schedule: Q01DX001 (ip), vehicle: saline 93 % of control | [13] 96 % of control | [11] 92 % of control | [7] 101 % of control
